Experimental data as given in ChEMBL document CHEMBL1141820, “Cytotoxic polyacetylenes from the marine sponge Petrosia sp” (1999).
In brackets after ≈: the same amount, converted by molar mass.

How the values were obtained:
Format in all cases: functional
Settings in all cases: read-out: ED50 (the source's name)
SK-OV-3 = experiment: Cytotoxicity against human SKOV3 cells
HCT-15 = experiment: Cytotoxicity against human HCT-15 cells
SK-MEL-2 = experiment: Cytotoxicity against human SK-MEL-2 cells
XF498 = experiment: Cytotoxicity against human XF498 cells
A549 = experiment: Cytotoxicity against human A549 cells

C#CC(O)/C=C/CCCCCCC#CC/C=C/CCCCCCCCC/C=C/C(O)C#C (stereo not given)
EC50 (SK-OV-3): 0.1 µg/mL (≈ 0.229 µM) | EC50 (HCT-15): 1.2 µg/mL (≈ 2.75 µM) | EC50 (SK-MEL-2): 0.2 µg/mL (≈ 0.458 µM) | EC50 (XF498): 1.2 µg/mL (≈ 2.75 µM) | EC50 (A549): 1.4 µg/mL (≈ 3.21 µM)

C#C/C=C\CCCCCCCCCCCCCC/C=C/CCCC/C=C/CCCCC#C[C@@H](O)C#CCCCCCC/C=C/[C@H](O)C#C
EC50 (SK-OV-3): 0.6 µg/mL (≈ 0.916 µM) | EC50 (HCT-15): 1 µg/mL (≈ 1.53 µM) | EC50 (SK-MEL-2): 1.1 µg/mL (≈ 1.68 µM) | EC50 (XF498): 1.7 µg/mL (≈ 2.6 µM) | EC50 (A549): 1.1 µg/mL (≈ 1.68 µM)

C#C[C@@H](O)/C=C/CCCCCCC#CC/C=C/C/C=C/CCCCCCCC[C@H](O)C#C [DIDEOXYPETROSYNOL F]
EC50 (SK-OV-3): > 3 µg/mL | EC50 (HCT-15): > 3 µg/mL | EC50 (SK-MEL-2): > 3 µg/mL | EC50 (XF498): > 3 µg/mL | EC50 (A549): > 3 µg/mL

C#C/C=C\CCCCCCCCCCCCCC/C=C/CCCC/C=C/CC/C=C/C#C[C@@H](O)C#CCCCCCC/C=C/[C@H](O)C#C [PETROTETRAYNDIOL A]
EC50 (SK-OV-3): 0.5 µg/mL (≈ 0.766 µM) | EC50 (HCT-15): 1 µg/mL (≈ 1.53 µM) | EC50 (SK-MEL-2): 0.9 µg/mL (≈ 1.38 µM) | EC50 (XF498): 1.7 µg/mL (≈ 2.6 µM) | EC50 (A549): 1.6 µg/mL (≈ 2.45 µM)

C#C/C=C\CCCCCCCCCCCCCC/C=C/CCCC/C=C/CCCCC#C[C@@H](O)C#CCCCCCCCC[C@H](O)C#C [PETROTETRAYNDIOL B]
EC50 (SK-OV-3): 2.2 µg/mL (≈ 3.35 µM) | EC50 (HCT-15): 3.7 µg/mL (≈ 5.63 µM) | EC50 (SK-MEL-2): 1.9 µg/mL (≈ 2.89 µM) | EC50 (XF498): > 3 µg/mL | EC50 (A549): 1.7 µg/mL (≈ 2.59 µM)

C#C/C=C/[C@@H](O)CCCCCCCCC/C=C/CC#CCCCCCC/C=C/[C@H](O)C#C [DIDEOXYPETROSYNOL E]
EC50 (SK-OV-3): 0.1 µg/mL (≈ 0.229 µM) | EC50 (HCT-15): 0.8 µg/mL (≈ 1.83 µM) | EC50 (SK-MEL-2): 0.1 µg/mL (≈ 0.229 µM) | EC50 (XF498): 0.6 µg/mL (≈ 1.37 µM) | EC50 (A549): 1.3 µg/mL (≈ 2.98 µM)

COc1cccc2c1C(=O)c1c(O)c3c(c(O)c1C2=O)C[C@@](O)(C(=O)CO)C[C@@H]3O[C@H]1C[C@H](N)[C@H](O)[C@H](C)O1 [DOXORUBICIN]
EC50 (SK-OV-3): 0.2 µg/mL (≈ 0.368 µM) | EC50 (HCT-15): 0.9 µg/mL (≈ 1.66 µM) | EC50 (SK-MEL-2): 0.2 µg/mL (≈ 0.368 µM) | EC50 (XF498): 0.2 µg/mL (≈ 0.368 µM) | EC50 (A549): 0.1 µg/mL (≈ 0.184 µM)
